Experiments:
[1] = test system: differentiated human SH-SY5Y cells; test: Neuroprotection against ASPD, MTT, SH-SY5Y cells; assay type: cell-based; settings: ASPD alone
PKC-ε [2] = test: PKC-ε mRNA by RT-PCR in primary rat hippocampal neurons; assay type: cell-based; settings: controls and ASPD-treated cells
Description: RNA was isolated from the cells using Trizol reagent (Invitrogen, USA) following the manufacturer's protocol. Briefly, 5 μg of total RNA was reverse transcribed using oligo (dT) and Superscript III (Invitrogen, USA) at 50° C. for 1 hr. Two μl of the cDNA product was amplified using primers for PKC-ε (Forward Primer—[…], Reverse primer—[…]), and β-tubulin (Forward Primer—[…], Reverse primer—[…]) (Origene, Rockville, Md.) for 25 cycles following standard PCR protocols and 55° C. annealing temperature. The PCR amplicons were analyzed in an E-Gel (Invitrogen, USA). The gel image was documented using a Fuji Image gel scanner (FLA-9000, Fuji Film) and densitometric quantification was performed using the IMAL software (Blanchette Rockefeller Neurosciences Institute, Morgantown, W. Va.). Data were represented as normalized ratio of PKC-ε OD (Optical Density) against β-tubulin OD for three independent experiments.
Primary neurons were treated with ASPD and/or DCPLA-ME. PKC-ε mRNA was quantified by RT-PCR as described above. RNA prepared from control and treated cultured primary rat hippocampal neurons were isolated and reverse transcribed. Individual cDNA was amplified for PKC-ε and β-actin. PKC-ε expression was normalized to β-actin.

[3] = test system: rat hippocampal primary neurons; test: Synaptic marker immunofluorescence in rat hippocampal primary neurons; assay type: cell-based
Description: Cells were grown in two chambered slides (Nunc, USA) at low density. For immunofluorescence staining, the cells were washed with PBS (pH 7.4) and fixed with 4% paraformaldehyde for 4 min. Following fixation, the cells were blocked and permeabilized with 5% serum and 0.3% Triton X 100 in 1×PBS for 30 min. The cells were washed three times with 1×PBS and incubated with primary antibodies for 1 hr at 1:100 dilution. The incubation slides were then washed again three times in 1×PBS and were incubated with the FITC anti-rabbit IgG and Rhodamine anti-mouse IgG for 1 hr at 1:400 dilution. The cells were further washed and treated with DAPI (4′,6-diamidino-2′-phenylindole, dihydrochloride) (Thermo Scientific, USA) to stain the nucleus. Finally, the slides were washed and mounted in Pro Long Gold antifade mounting solution (Invitrogen, USA) and were viewed under the LSM 710 Meta confocal microscope (Zeiss) at 350 nm, 490 nm, and 540 nm excitation and 470 nm, 525 nm, and 625 nm emission for DAPI, FITC, and Rhodamine respectively. Six individual fields at 63× oil lens magnification were analyzed for the mean fluorescence intensity (MFI) in each channel. The co-localization correlation generated by the ZEN software (Zeiss).
To estimate the synaptic damage caused by the ASPDs on primary hippocampal neurons, the expression of synaptophysin (a presynaptic marker) and PSD-95 (a postsynaptic marker) was measured by immunofluorescence staining. […] Following a 20 hr incubation period, the cells were stained for nucleus, PSD-95, and synaptophysin. Expression levels were calculated as the change of percentage in mean fluorescence intensity compared to untreated cells.
Primary neurons, treated and untreated, were immunostained for MAP-2, synaptophysin, and PSD-95 to determine the synaptic integrity. […] Following a 20 hr incubation period, the cells were stained for MAP-2, PSD-95, and synaptophysin as described above.

[4] = test system: rat primary hippocampal neurons; test: Neurotoxic effect of Aβ1-42 assemblies, MTT viability; assay type: cell-based; settings: 20 hr
Description: (§1) Viability of cells was measured by MTT assay. MTT (3-(4,5-Dimethylthiazol-2-yl)-2,5-diphenyltetrazolium bromide) is a tetrazolium salt that is cleaved to formazan by the succinate dehydrogenase, which is only active in viable cells. After solubilization of the formazan, the amount of dye can be quantified with a microplate reader at 570 nm along with a reference of 630 nm. For MTT assay, 5×104 primary rat hippocampal neurons from 18-day-old embryonic Sprague-Dawley rat brains were plated on each well of 24-well plates coated with poly-D-lysine. After treatment, the cells were washed with 1×PBS and were incubated with 200 μl of 1 mg/ml MTT solution (Sigma, USA) at 37° C. for 2 hr. Then the MTT-solution was removed and the cells were lysed with 200 μl isopropanol containing 0.04 M HCl and 160 mM NaOH for 10 min. Finally, the reading was done at 570 nm and 630 nm. All the samples were done in triplicates and the data was represented as the percentage of control.
To assess the neurotoxic effect of different sized oligomers, rat primary hippocampal neurons were treated with variable concentrations of these Aβ1-42 species for 20 hr. Viability of the treated cells was compared to untreated cells using the MTT assay.

synaptophysin = test: Synaptophysin Western Blot in primary rat hippocampal neurons; assay type: cell-based; settings: ASPD
Description: (§2) Cells were harvested in homogenizing buffer containing 10 mM Tris-Cl (pH 7.4), 1 mM PMSF (phenylmethylsulfonyl fluoride), 1 mM EGTA, 1 mM EDTA, 50 mM NaF, and 20 μM leupeptin and were lysed by sonication. The homogenate was centrifuged at 100,000×g for 15 min at 4° C. to obtain the cytosolic fraction (supernatant) and membrane (pellet). The pellet was resuspended in the homogenizing buffer by sonication. Protein concentration was measured using the Coomassie Plus (Bradford) Protein Assay kit (Pierce, USA). Following quantification, 20 μg of protein from each sample was subjected to SDS-PAGE analysis in 4-20% gradient Tris-Glycine gel (Invitrogen, USA). The separated protein was then transferred to nitrocellulose membrane. The membrane was blocked with BSA at room temperature for 15 min and was incubated with primary antibody over night at 4° C. After the incubation, it was washed three times with TBS-T (Tris Buffered saline-Tween 20) and further incubated with alkaline phosphatase conjugated secondary antibody (Jackson Immunoresearch Laboratories, USA) at 1:10,000 dilution for 45 min. The membrane was finally washed three times with TBS-T and developed using the 1-step NBT-BCIP substrate (Pierce, USA). Western Blot was imaged in the ImageQuant RT-ECL (GE Life Sciences, Piscataway, N.J.) and densitometric quantification was performed using the IMAL software (Blanchette Rockefeller Neurosciences Institute, Morgantown, W. Va.). For translocation assays, PKC activation was represented as the percentage of total protein in the membrane (membrane/cytosol+membrane).

PKC-ε [5] = test: PKC-ε level in primary neurons (immunofluorescence, Western Blot); assay type: cell-based, rat; settings: primary neurons, 20 hr ASPD
Description: as §2
Cells were grown in two chambered slides (Nunc, USA) at low density. For immunofluorescence staining, the cells were washed with PBS (pH 7.4) and fixed with 4% paraformaldehyde for 4 min. Following fixation, the cells were blocked and permeabilized with 5% serum and 0.3% Triton X 100 in 1×PBS for 30 min. […] Six individual fields at 63× oil lens magnification were analyzed for the mean fluorescence intensity (MFI) in each channel. […]

[6] = test system: primary rat hippocampal neurons; test: Neuroprotection against ASPD induced toxicity, MTT, primary neurons; assay type: cell-based
Description: as §1
All studies used 50 nM ASPDs. The viability of the cells were measured by the MTT assay.

PKC-ε [7] = test: PKC-ε translocation to membrane in SH-SY5Y cells (Western blot); assay type: cell-based, human; settings: ASPD; ADDL at 20-fold higher concentrations
Description: as §2
Equal amounts of proteins were loaded in each lane (20 μg) for both the cytosol and membrane fractions. Activation of PKC was calculated as the percentage of total PKC in the membrane (membrane/cytosol+membrane).

[8] = 50 nM ASPD alone (ASPD) or with 100 nM DCPLA-ME, 20 hr
[9] = 50 nM ASPD alone (ASPD) or with RA and Bryostatin-1, 20 hr

Substance: ASPD: amylospheroids, Aβ1-42 assemblies retained by a 100 kDa filter
- viability compared to the untreated cells [1]: 77.15±0.49%
- PKC-ε transcript levels (in words) (PKC-ε [2]): did not change PKC-ε mRNA significantly
- MAP-2 expression (mean fluorescence intensity) [3, 8]: 40.7±6.2%
- PSD-95 expression (mean fluorescence intensity) [3, 8]: 67.63±7.24%
- synaptophysin expression (mean fluorescence intensity) [3, 8]: 63.3±3.8%
- Mean fluorescence intensity of PSD-95 [3, 9]: 8.16±1.21
- Mean fluorescence intensity of synaptophysin [3, 9]: 9.74±2.5
- decrease of PSD-95 expression ([3]; 50 nM ASPD, 20 hr): 42%
- decrease in synaptophysin intensity ([3]; 50 nM ASPDs, 1 μM ADDLs, 20 hr): 40%
- synaptophysin intensity compared to the control ([3]; 50 nM ASPDs, 1 μM ADDLs, 20 hr): 62.45±6.74%
- Viability of primary neuron (Mean ± SEM) ([4]; 0.5 nM): 95.12 ± 0.733 % of control
- Viability of primary neuron (Mean ± SEM) ([4]; 1 nM): 89.64 ± 5.99 % of control
- Viability of primary neuron (Mean ± SEM) ([4]; 2 nM): 87.75 ± 0.94 % of control
- Viability of primary neuron (Mean ± SEM) ([4]; 5 nM): 70.95 ± 1.89 % of control
- Viability of primary neuron (Mean ± SEM) ([4]; 10 nM): 68.68 ± 0.84 % of control
- Viability of primary neuron (Mean ± SEM) ([4]; 50 nM): 57.55 ± 3.35 % of control
- viability of neurons ([4]; 50 nM): 57.1±4.9%
- Viability of primary neuron (Mean ± SEM) ([4]; 500 nM): 52.94 ± 3.75 % of control
- decrease of synaptophysin expression by Western Blot (synaptophysin): 26%
- synaptophysin expression by Western Blot (synaptophysin): 73.30%±3.319
- PKC-ε immunofluorescence level compared to control (PKC-ε [5]): 60.81±5.85%
- viability of primary neurons ([6]; 50 nM ASPD alone, 20 hr): 57.6±1.6%
- viability (Example 25) ([6]; 50 nM ASPDs alone (ASPD) or with the treatment named, 24 hr): 57.61%±1.59
- PKC-ε membrane translocation (PKC-ε [7]): 69.98±3.27%
- reduction of PKC-ε translocation (PKC-ε [7]): 46%

— patent publication US10821079B2, “PKC activators and combinations thereof” (Cognitive Research Enterprises, Inc., priority 2011, dated 2020)
